How the values were obtained:
[1] = tested on: lactate dehydrogenase (LDH); assay: Serum LDH activity in CLP mice; assay type: in vivo, Male BALB/c mice; details: i.p. 2 h after CLP; Cath-HG 1.25, 2.5, 5 mg/kg or clopidogrel 20 mg/kg; n = 4
Experimental: (§1) CLP-induced sepsis was performed based on our previous method with minor modifications. Briefly, under sterile conditions, the cecum of anesthetized mice was exposed and tightly ligated approximately 1 cm from the end. Then, the cecum was punctured twice at different mid-points with a 22-gauge needle, gently squeezed to extrude a small amount of fecal matter, returned into the peritoneal cavity which was sutured. Finally, the mice underwent resuscitation through the administration of 1 ml of preheated physiological saline via subcutaneous injection. […] Clopidogrel (20 mg/kg) was administered as a positive control, and blank control mice underwent sham surgery and received saline. All mice were monitored for 72 h after the induction of CLP. Another group of mice underwent the same procedure described above. Twenty-four hours after the surgery, the mice were euthanized, and blood, heart, liver, spleen, lung, and kidney samples were collected for subsequent analysis.
For platelet count determination, blood was collected in EDTA and analyzed using a PE-6800 Fully Auto Hematology Analyzer (Prokan, Shenzhen, China). […] TPO levels were determined by ELISA, and LDH activity was measured using an LDH assay kit.

[2] = tested on: CLP septic mice; assay: Microvascular thrombosis by fluorescent bead imaging in CLP mice; assay type: in vivo, Male BALB/c mice; details: lungs, liver, kidneys; i.p. 2 h after CLP; Cath-HG 1.25, 2.5, 5 mg/kg or clopidogrel 20 mg/kg
Experimental: as §1

[3] = tested on: CLP septic mice; assay: Bacterial loads in organs of CLP mice; assay type: in vivo, Male BALB/c mice; details: heart, liver, spleen, lung, kidney; 24 h after CLP; i.p. Cath-HG 1.25, 2.5, 5 mg/kg or clopidogrel 20 mg/kg
Experimental: as §1

[4] = tested on: phosphorylation of Src, Syk, PLCγ2, and Akt; assay: Western blot: phosphorylation of GPVI downstream proteins in collagen-stimulated platelets; assay type: cell-based, mice; details: washed platelets, Cath-HG 5, 10, 20 μM 5 min, n = 3, or dasatinib (Src inhibitor)
Experimental: The platelets were lysed with radioimmunoprecipitation assay buffer containing protease inhibitor and phosphatase inhibitor cocktails, and the protein concentration was determined with a bicinchoninic acid protein assay kit before SDS-polyacrylamide gel electrophoresis separation and polyvinylidene difluoride (PVDF) membrane transferring. The membranes were incubated with corresponding primary antibodies overnight at 4 °C and appropriate horseradish peroxidase-conjugated secondary antibodies at room temperature for 1 h after being blocked with 5% skimmed milk at room temperature for 1 h. Finally, the results were recorded using a FluorChem R chemiluminescence imaging system (ProteinSimple, CA, USA) and analyzed using ImageJ software.

[5] = biological target: platelet glycoprotein VI (mouse (endogenous in mouse platelets)) (UniProt P0C191)
[6] = tested on: FeCl3-injured mice; assay: FeCl3-induced carotid artery thrombosis model; assay type: in vivo, Male BALB/c mice; details: FeCl3 10% (w/v), i.v. 30 min before injury, Cath-HG 5 mg/kg or heparin 1,000 U/kg
Experimental: The carotid artery thrombus experiment was carried out as described by Zhang et al. […] Anesthesia was induced with 2.0% isoflurane before the left carotid artery was exposed through a midline neck incision. A small piece of filter paper (2 mm × 1 mm) saturated with 10% (w/v) FeCl3 solution was placed on the carotid artery for 5 min to induce thrombus formation. The filter paper was then removed, and the artery was washed with saline. The carotid blood flow and occlusion time were measured to evaluate thrombus formation with the RFLSI Pro+ laser speckle blood flow imaging system (RWD, Shenzhen, China).

UniProt P0C191, sequence (P0C191 22-313): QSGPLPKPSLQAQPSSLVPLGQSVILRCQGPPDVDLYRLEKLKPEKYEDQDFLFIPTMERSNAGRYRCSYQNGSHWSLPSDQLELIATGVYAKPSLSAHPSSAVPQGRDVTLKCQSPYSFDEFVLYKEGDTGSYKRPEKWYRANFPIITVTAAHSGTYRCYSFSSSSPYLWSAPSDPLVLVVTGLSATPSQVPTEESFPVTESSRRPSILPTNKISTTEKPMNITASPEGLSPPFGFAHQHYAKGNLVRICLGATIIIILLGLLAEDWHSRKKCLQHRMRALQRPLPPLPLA

Q: What does the source list for `COC(=O)[C@H](c1ccccc1Cl)N1CCc2sccc2C1` [clopidogrel]?
A: LDH activity in serum [1]: significantly decreased after Cath-HG or clopidogrel treatment; microvascular thrombosis (fluorescence of beads) [2]: reduced the fluorescence levels of lungs, liver, and kidneys; bacterial load in organs [3]: reduced the bacterial burden in the organs of CLP mice

Q: How did the “collagen-induced phosphorylation of GPVI downstream proteins (Src, Syk, PLCγ2, Akt)” value [4] turn out when `Cc1nc(Nc2ncc(C(=O)Nc3c(C)cccc3Cl)s2)cc(N2CCN(CCO)CC2)n1` [dasatinib] was run?
A: completely inhibited

Q: How did the inhibition of platelet aggregation in platelet-rich plasma induced by the GPVI-specific agonist convulxin (0.6 nM); Cath-HG 5, 10 and 20 μM, value at 20 μM [5] turn out when Cathelicidin-HG (peptide) was run?
A: 63.2%

Q: Which results are given for heparin?
A: carotid blood flow ([6]; laser speckle imaging): significantly increased blood flow; mean occlusion time of carotid artery ([6]; n = 3, mean ± SD, control 2.9 ± 0.3 min): 5.4 ± 0.3 min

— PMC11151873, “Cathelicidin-HG Alleviates Sepsis-Induced Platelet Dysfunction by Inhibiting GPVI-Mediated Platelet Activation” (Research, 2024)
